From PubChem BioAssay (NCI)
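1) Cells in 96-well plates. 2) Compound, 48 h, 5 concentrations. 3) Linear interpolation between surrounding doses. 4) Unreached endpoint = highest concentration. At the GI50, growth is halved. The concentration for full growth arrest is given as TGI.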

What was measured:
Test in all cases: growth of human tumour cells (NCI), 48 h
[1] = test system: RXF 393 renal
[2] = test system: OVCAR-8 ovarian
[3] = test system: HCT-15 colon
[4] = test system: T-47D breast
[5] = test system: NCI-H522 lung
[6] = test system: SR leukemia
[7] = test system: PC-3 prostate
[8] = test system: K-562 leukemia
[9] = test system: CCRF-CEM leukemia
[10] = test system: SF-539 CNS

SMILES	GI50 [1]	TGI [1]	GI50 [2]	TGI [2]	GI50 [3]	TGI [3]	GI50 [4]	TGI [4]	GI50 [5]	TGI [5]	GI50 [6]	TGI [6]	GI50 [7]	TGI [7]	GI50 [8]	TGI [8]	GI50 [9]	TGI [9]	TGI [10]	GI50 [10]
NC(=NC1CCCCCC1)c1ccc(N2CCN(c3ccc(C(N)=NC4CCCCCC4)cc3)CC2)cc1	9.99 µM	35.6 µM	9 µM	> 50 µM	24.3 µM	> 50 µM	15.2 µM	> 50 µM	5.42 µM	23.9 µM	6.64 µM	19.8 µM	12.1 µM	> 50 µM	4.57 µM	> 50 µM	10.5 µM	46.5 µM	–	–
CCc1oc2ccccc2c1C(=O)c1cc(Br)c(O)c(Br)c1	–	35 µM	–	> 100 µM	–	76.2 µM	–	53.6 µM	–	43.1 µM	–	55.4 µM	–	43.6 µM	–	82.7 µM	–	55.4 µM	32.9 µM	–
O=c1[nH]nc2c3c(cccc13)NC(CN1Cc3ccccc3C1)=N2	3.79 µM	74.1 µM	15 µM	> 100 µM	6.13 µM	> 100 µM	5.27 µM	> 100 µM	2.77 µM	> 100 µM	5.13 µM	> 100 µM	7.23 µM	> 100 µM	8.19 µM	> 100 µM	4.42 µM	> 100 µM	> 100 µM	7.9 µM
Cn1c(=O)c2[nH]c(COCc3nc4c([nH]3)c(=O)n(C)c(=O)n4C)nc2n(C)c1=O	–	> 100 µM	–	> 100 µM	–	> 100 µM	–	> 100 µM	–	> 100 µM	–	> 100 µM	–	> 100 µM	–	> 100 µM	–	> 100 µM	> 100 µM	–
CC(=O)Oc1cccc2c1C(=O)C(Br)(Br)CCC2	–	12.6 µM	–	13 µM	–	29.4 µM	–	4.61 µM	–	4.55 µM	–	8.19 µM	–	16 µM	–	20.8 µM	–	9.91 µM	23.1 µM	–
COc1cc(-c2cn(-c3ccc(Cl)cc3)c(=O)[nH]2)cc(OC)c1OC	> 100 µM	> 100 µM	> 100 µM	> 100 µM	> 100 µM	> 100 µM	> 100 µM	> 100 µM	> 100 µM	> 100 µM	0.034 µM	39.1 µM	> 100 µM	> 100 µM	52.1 µM	> 100 µM	> 100 µM	> 100 µM	> 100 µM	> 100 µM
c1ccc2[nH]c(-c3ccc(OCCCCCOc4ccc(-c5nc6ccccc6[nH]5)cc4)cc3)nc2c1	1.48 µM	3.08 µM	4.06 µM	11.6 µM	1.12 µM	8.11 µM	0.822 µM	2.13 µM	2.29 µM	6.62 µM	0.241 µM	0.721 µM	2.76 µM	8.05 µM	1.04 µM	–	0.195 µM	0.54 µM	2.3 µM	0.835 µM
Cc1nn2c(/C=C3/C(=O)Nc4ccc(Cl)cc43)c(-c3ccccc3)nc2s1	1.91 µM	4.71 µM	2.19 µM	5.76 µM	4.65 µM	31.9 µM	1.71 µM	11.5 µM	4.26 µM	17.9 µM	3.5 µM	> 100 µM	1.79 µM	5.37 µM	3.85 µM	20.6 µM	4.06 µM	23.7 µM	6.54 µM	2.25 µM
NC(=O)C1=C(c2ccccc2)c2ccccc2C1=O	–	35.9 µM	–	31 µM	–	26.8 µM	–	40.9 µM	–	45.1 µM	–	26.3 µM	–	32.7 µM	–	> 100 µM	–	7.71 µM	–	–
Cc1ccc(NC2=C(Sc3ccc(Cl)cc3)C(=O)N(Cc3ccccc3)C2=O)cc1Cl	–	–	3.98 µM	34.8 µM	10.6 µM	> 100 µM	5.32 µM	66.4 µM	3.62 µM	14.9 µM	2.86 µM	8.12 µM	5.47 µM	19.7 µM	3.66 µM	19.7 µM	11.1 µM	23.1 µM	16.9 µM	3.45 µM
CN(C)CC#Cc1cccc(C(=O)c2cnn(-c3ccc(F)cc3)c2N)c1	> 25 µM	> 25 µM	> 25 µM	> 25 µM	> 23.8 µM	> 25 µM	11.3 µM	> 25 µM	> 25 µM	> 25 µM	> 18.2 µM	> 25 µM	> 25 µM	> 25 µM	> 17.8 µM	> 25 µM	> 25 µM	> 25 µM	> 25 µM	> 25 µM
N#CC(C#N)=CN1CCN(C(=O)c2ccccc2)C1=S	22.7 µM	70.7 µM	77 µM	> 100 µM	36.4 µM	> 100 µM	89.2 µM	> 100 µM	15.9 µM	43.7 µM	18.8 µM	79.9 µM	60 µM	> 100 µM	79.5 µM	> 100 µM	> 100 µM	> 100 µM	–	–
CCOc1cc2ncc(C#N)c(Nc3ccc(F)c(Cl)c3)c2cc1NC(=O)/C=C/CN(C)C	0.255 µM	3.46 µM	0.295 µM	> 9.22 µM	0.245 µM	4.07 µM	0.108 µM	> 3.37 µM	0.0231 µM	0.732 µM	0.414 µM	2.4 µM	1.19 µM	> 9 µM	0.36 µM	> 4.21 µM	1.13 µM	> 7.16 µM	2.31 µM	0.826 µM
CO/N=C1/NC(=O)/C(=C/c2ccc3ncccc3c2)S1	9.81 µM	> 25 µM	> 22.6 µM	> 25 µM	9.13 µM	> 25 µM	4.46 µM	> 20.2 µM	12.3 µM	> 25 µM	14.7 µM	> 25 µM	11.7 µM	> 25 µM	> 25 µM	> 25 µM	10.9 µM	> 25 µM	> 25 µM	8.27 µM
